# Measurements: US10214519B2, “Phosphatidylinositol 3-kinase inhibitors” (Gilead Sciences, Inc., priority 2016, dated 2019)
# Molecular target: PI3Kβ (Homo sapiens (Human), UniProt P42338)
# Test: PI3K isoform TR-FRET enzymatic assay (PI3Kβ)
# Assay type: biochemical
# Conditions: 2× Km ATP, 30 minutes at 25° C.
# Method in brief: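 Heterodimeric recombinant PI3Kβ was incubated with compound 30 minutes at 25° C. Product was detected by TR-FRET competition with 10 nM labeled PIP3 for 35 nM Eu-GRP-1 PH domain after EDTA stop. Data were normalized to 1 μM wortmannin and DMSO, and IC50 was taken from a four-parameter fit.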
# Sequence of PI3Kβ (P42338 whole entry, canonical isoform): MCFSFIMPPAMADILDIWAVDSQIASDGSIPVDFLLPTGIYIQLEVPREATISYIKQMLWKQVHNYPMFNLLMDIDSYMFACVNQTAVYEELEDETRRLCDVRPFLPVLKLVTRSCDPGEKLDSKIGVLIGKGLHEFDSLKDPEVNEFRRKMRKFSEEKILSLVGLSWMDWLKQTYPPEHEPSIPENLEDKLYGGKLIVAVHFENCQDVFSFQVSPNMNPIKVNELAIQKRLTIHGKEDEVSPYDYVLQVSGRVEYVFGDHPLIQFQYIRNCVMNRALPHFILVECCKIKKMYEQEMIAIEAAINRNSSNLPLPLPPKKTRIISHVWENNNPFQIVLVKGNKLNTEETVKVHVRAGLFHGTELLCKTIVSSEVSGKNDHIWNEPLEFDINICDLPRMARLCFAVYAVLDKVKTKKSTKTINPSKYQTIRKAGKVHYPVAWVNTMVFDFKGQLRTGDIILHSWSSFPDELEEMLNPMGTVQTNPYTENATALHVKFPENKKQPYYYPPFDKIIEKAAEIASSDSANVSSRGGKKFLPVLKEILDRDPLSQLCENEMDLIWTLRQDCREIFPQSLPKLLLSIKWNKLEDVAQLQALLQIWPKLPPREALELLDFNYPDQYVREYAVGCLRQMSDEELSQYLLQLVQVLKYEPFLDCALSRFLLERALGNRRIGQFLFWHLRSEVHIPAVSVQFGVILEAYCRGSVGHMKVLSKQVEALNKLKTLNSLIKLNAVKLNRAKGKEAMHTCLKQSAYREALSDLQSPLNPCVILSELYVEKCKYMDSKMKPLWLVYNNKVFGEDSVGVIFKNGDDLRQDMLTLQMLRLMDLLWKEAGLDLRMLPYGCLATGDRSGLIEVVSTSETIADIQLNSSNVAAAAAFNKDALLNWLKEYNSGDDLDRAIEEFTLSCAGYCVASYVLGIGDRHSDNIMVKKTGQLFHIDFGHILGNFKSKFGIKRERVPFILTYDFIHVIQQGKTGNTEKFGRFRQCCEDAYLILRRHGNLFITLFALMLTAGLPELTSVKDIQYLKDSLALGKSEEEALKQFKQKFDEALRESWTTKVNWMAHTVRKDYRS
# Sequence of PI3Kβ (P27986 whole entry partner, canonical isoform): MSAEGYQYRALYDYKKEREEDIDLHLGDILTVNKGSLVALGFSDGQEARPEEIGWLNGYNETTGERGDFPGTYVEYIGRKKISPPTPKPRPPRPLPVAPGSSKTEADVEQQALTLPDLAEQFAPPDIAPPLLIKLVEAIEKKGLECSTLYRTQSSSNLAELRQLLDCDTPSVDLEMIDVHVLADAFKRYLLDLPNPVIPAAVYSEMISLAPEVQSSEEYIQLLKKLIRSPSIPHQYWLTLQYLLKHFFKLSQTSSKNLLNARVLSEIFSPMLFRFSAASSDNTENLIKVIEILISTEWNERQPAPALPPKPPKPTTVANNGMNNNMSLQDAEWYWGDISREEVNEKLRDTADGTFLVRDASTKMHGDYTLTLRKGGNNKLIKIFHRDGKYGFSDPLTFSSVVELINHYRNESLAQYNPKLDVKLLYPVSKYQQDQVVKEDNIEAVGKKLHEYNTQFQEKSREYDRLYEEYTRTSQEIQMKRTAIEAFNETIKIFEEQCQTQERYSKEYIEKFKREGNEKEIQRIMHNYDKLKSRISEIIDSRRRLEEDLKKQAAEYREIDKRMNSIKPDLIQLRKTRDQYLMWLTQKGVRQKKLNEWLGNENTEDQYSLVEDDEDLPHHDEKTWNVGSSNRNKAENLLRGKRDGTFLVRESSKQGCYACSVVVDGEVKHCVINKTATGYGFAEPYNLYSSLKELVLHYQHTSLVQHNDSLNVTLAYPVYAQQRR
row,IC50,SMILES
1,29 nM,"CCc1nc2ccccc2c(-n2c(C)nc3c(-c4nc(C)n[nH]4)cc(N4CCOCC4)cc32)c1C [Example 76, 4-[3-(2-ethyl-3-methylquinolin-4-yl)-2-methyl-7-(3-methyl-1H-1,2,4-triazol-5-yl)benzimidazol-5-yl]morpholine]"
2,14 nM,"Cc1nc2c(-c3cnc[nH]3)cc(N3CCOCC3)cc2n1-c1ccnc2c(F)cccc12 [Example 208, 4-[3-(8-fluoroquinolin-4-yl)-7-(1H-imidazol-5-yl)-2-methylbenzimidazol-5-yl]morpholine]"
3,27 nM,"Fc1ccc(F)c2c(-n3c(C4CC4)nc4c(-c5nccs5)cc(N5CCOCC5)cc43)ccnc12 [Example 241, 4-[2-cyclopropyl-3-(5,8-difluoroquinolin-4-yl)-7-(1,3-thiazol-2-yl)benzimidazol-5-yl]morpholine]"
4,110 nM,"Fc1ccc(F)c2c(-n3c(C4COC4)nc4c(-c5nnc[nH]5)cc(N5CCOCC5)cc43)ccnc12 [Example 123, 4-[3-(5,8-difluoroquinolin-4-yl)-2-(oxetan-3-yl)-7-(4H-1,2,4-triazol-3-yl)benzimidazol-5-yl]morpholine]"
5,17 nM,"CCc1nnc(-c2cc(N3CCOCC3)cc3c2nc(C)n3-c2ccnc3c(Cl)cccc23)[nH]1 [Example 137, 4-[3-(8-chloroquinolin-4-yl)-7-(5-ethyl-4H-1,2,4-triazol-3-yl)-2-methylbenzimidazol-5-yl]morpholine]"
6,11 nM,"Cc1nc2c(-c3nnc[nH]3)cc(N3CCOCC3)cc2n1-c1ccnc2c(Cl)c(F)ccc12 [Example 39, 4-(1-(8-chloro-7-fluoroquinolin-4-yl)-2-methyl-4-(4H-1,2,4-triazol-3-yl)-1H-benzo[d]imidazol-6-yl)morpholine]"
7,51 nM,"Cc1nc2c(-c3nnc[nH]3)cc(N3CCOCC3)cc2n1-c1c(Cl)cnc2ccccc12 [Example 128, 4-[3-(3-chloroquinolin-4-yl)-2-methyl-7-(4H-1,2,4-triazol-3-yl)benzimidazol-5-yl]morpholine]"
8,27 nM,"Clc1cccc2c(-n3c(-c4cn[nH]c4)nc4c(-c5nnc[nH]5)cc(N5CCOCC5)cc43)ccnc12 [Example 120, 4-[3-(8-chloroquinolin-4-yl)-2-(1H-pyrazol-4-yl)-7-(4H-1,2,4-triazol-3-yl)benzimidazol-5-yl]morpholine]"
9,2600 nM,"Cc1nc2c(-c3ccc(C#N)s3)cc(N3CCOCC3)cc2n1-c1ccnc2c(Cl)cccc12 [Example 273, 5-[1-(8-chloroquinolin-4-yl)-2-methyl-6-morpholin-4-ylbenzimidazol-4-yl]thiophene-2-carbonitrile]"
10,29 nM,"CCc1nc2c(-c3nnc[nH]3)cc(N3CCOCC3)cc2n1-c1ccnc2c(F)ccc(Cl)c12 [Example 5, 4-(1-(5-chloro-8-fluoroquinolin-4-yl)-2-ethyl-4-(4H-1,2,4-triazol-3-yl)-1H-benzo[d]imidazol-6-yl)morpholine]"
11,13 nM,"CCc1nc2c(-c3nnc[nH]3)cc(N3CCOCC3)cc2n1-c1c(Cl)cnc2c(Cl)cccc12 [Example 98, 4-[3-(3,8-dichloroquinolin-4-yl)-2-ethyl-7-(4H-1,2,4-triazol-3-yl)benzimidazol-5-yl]morpholine]"
12,24 nM,"CCCc1nc2c(-c3nnc(C)[nH]3)cc(N3CCOCC3)cc2n1-c1ccnc2c(F)ccc(F)c12 [Example 3, 4-(1-(5,8-difluoroquinolin-4-yl)-4-(5-methyl-4H-1,2,4-triazol-3-yl)-2-propyl-1H-benzo[d]imidazol-6-yl)morpholine]"
13,56 nM,"Cc1nc2c(-c3nnc[nH]3)cc(N3CCOCC3)cc2n1-c1c(Cl)cnc2c(F)cccc12 [Example 27, 4-[3-(3-chloro-8-fluoroquinolin-4-yl)-2-methyl-7-(4H-1,2,4-triazol-3-yl)benzimidazol-5-yl]morpholine]"
14,317 nM,"Cc1cc(-c2cc(N3CCOCC3)cc3c2nc(C)n3-c2ccnc3c(Cl)cccc23)n[nH]1 [Example 268, 4-[3-(8-chloroquinolin-4-yl)-2-methyl-7-(5-methyl-1H-pyrazol-3-yl)benzimidazol-5-yl]morpholine]"
15,21 nM,"CCCc1nc2c(-c3cnc(Cl)[nH]3)cc(N3CCOCC3)cc2n1-c1ccnc2c(Cl)cc(F)cc12 [Example 303, 4-[3-(8-chloro-6-fluoroquinolin-4-yl)-7-(2-chloro-1H-imidazol-5-yl)-2-propylbenzimidazol-5-yl]morpholine]"
16,7 nM,"Clc1cccc2c(-n3c(CC4CC4)nc4c(-c5ncco5)cc(N5CCOCC5)cc43)ccnc12 [Example 220, 4-[3-(8-chloroquinolin-4-yl)-2-(cyclopropylmethyl)-7-(1,3-oxazol-2-yl)benzimidazol-5-yl]morpholine]"
17,5 nM,Cc1cc(-n2cnc3c(-c4cnc[nH]4)cc(N4CCOCC4)cc32)c2c(Cl)ccc(Cl)c2n1 [Example 330]
18,> 10000 nM,"Fc1ccc(F)c2c(-n3c(C4CC4)nc4c(-c5cnc(Cl)[nH]5)cc(N5CCOCC5)cc43)ccnc12 (atropisomer, axis not shown) [Compound 342, 4-[7-(2-chloro-1H-imidazol-5-yl)-2-cyclopropyl-3-(5,8-difluoroquinolin-4-yl)benzimidazol-5-yl]morpholine]"
19,13 nM,"CCc1nc2c(-c3cnc(Cl)[nH]3)cc(N3CCOCC3)cc2n1-c1ccnc2c(F)ccc(F)c12 [Example 280, 4-[7-(2-chloro-1H-imidazol-5-yl)-3-(5,8-difluoroquinolin-4-yl)-2-ethylbenzimidazol-5-yl]morpholine]"
20,23 nM,"Cc1nnc(-c2cc(N3CCOCC3)cc3c2nc(C)n3-c2ccnc3c(Cl)cccc23)[nH]1 [Example 129, 4-[3-(8-chloroquinolin-4-yl)-2-methyl-7-(5-methyl-4H-1,2,4-triazol-3-yl)benzimidazol-5-yl]morpholine]"
21,10 nM,"CCCc1nc2c(-c3nnc[nH]3)cc(N3CCOCC3)cc2n1-c1ccnc2c(F)cccc12 [Example 141, 4-[3-(8-fluoroquinolin-4-yl)-2-propyl-7-(4H-1,2,4-triazol-3-yl)benzimidazol-5-yl]morpholine]"
22,21 nM,"CCCc1nc2c(-c3nnc[nH]3)cc(N3CCOCC3)cc2n1-c1ccnc2ccccc12 [Example 41, 4-(2-propyl-1-(quinolin-4-yl)-4-(4H-1,2,4-triazol-3-yl)-1H-benzo[d]imidazol-6-yl)morpholine]"
23,27 nM,"Cc1cc(-n2c(C)nc3c(-c4cnc[nH]4)cc(N4CCOCC4)cc32)c2cccc(F)c2n1 [Example 210, 4-[3-(8-fluoro-2-methylquinolin-4-yl)-7-(1H-imidazol-5-yl)-2-methylbenzimidazol-5-yl]morpholine]"
24,21 nM,"Cc1nc2c(-c3nnc(N)[nH]3)cc(N3CCOCC3)cc2n1-c1ccnc2c(F)ccc(F)c12 [Example 393, 5-(1-(5,8-difluoroquinolin-4-yl)-2-methyl-6-morpholino-1H-benzo[d]imidazol-4-yl)-4H-1,2,4-triazol-3-amine]"
25,22 nM,"Cc1nc2c(-c3cnc(Cl)[nH]3)cc(N3CCOCC3)cc2n1-c1ccnc2c(F)cccc12 [Example 260, 4-(4-(2-chloro-1H-imidazol-5-yl)-1-(8-fluoroquinolin-4-yl)-2-methyl-1H-benzo[d]imidazol-6-yl)morpholine]"
26,62 nM,"Cc1n[nH]c(-c2cc(N3CCOCC3)cc3c2nc(C)n3-c2c(C)cnc3ccccc23)n1 [Example 74, 4-[2-methyl-3-(3-methylquinolin-4-yl)-7-(3-methyl-1H-1,2,4-triazol-5-yl)benzimidazol-5-yl]morpholine]"
